# Measurements as given in US7361671B2, “Substituted heteroarylalkanoic acids” (The Institute for Pharmaceutical Discovery, Inc., priority 2001, dated 2008).
# Where a name gives a salt, the structure may show the parent alone.
# Key:
# [1] = target: human aldose reductase (hALR2) (Homo sapiens, UniProt P15121); experiment: inhibition of human aldose reductase (hALR2) activity, methods similar to Butera et al.; type: biochemical; details: concentration to inhibit activity by 50%, read-out: hAR-#1 (aldose)
# Procedure: Representative compounds of the invention are tested for their potency, selectivity and efficacy as inhibitors of human aldose reductase. […] Using this assay, the concentrations required to inhibit human aldose reductase (hALR2) activity by 50% (IC50) are determined.
# [2] = tested on: urinary excretion of uric acid; experiment: Uricosuric activity in the chimpanzee: amount of uric acid excreted in the urine; type: in vivo; details: single oral 4 mg/kg dose; for Amount of uric acid excreted in the urine in 24 hour intervals, mean: mean of chimps
# Procedure: (§1) Compound of Example 14 was administered to chimpanzees orally as a single 4 mg/kg does. While four animals were dosed, complete data was not collected for one animal (Chimp #4), as an adverse reaction to anesthesia required early termination of this animal from the study.
# blood uric acid levels = experiment: Uricosuric activity in the chimpanzee: concentrations of uric acid in serum; type: in vivo; details: single oral 4 mg/kg dose; for Concentrations of uric acid in serum, mean: mean of chimps
# Procedure: as §1
smiles,measurement,setting,value
O=C(O)Cc1cc(Cc2nc3cc(C(F)(F)F)ccc3s2)cs1 (as salt: hydrochloride),melting point,,131 to 132 °C
"O=C(O)Cc1cncc(Cc2nc3c(F)c(F)cc(F)c3s2)c1 (as salt: hydrochloride) [Example 8, 5-(4,5,7-trifluoro-benzothiazol-2-ylmethyl)-pyridin-3-yl-acetic acid hydrochloride]",melting point,,196 to 197 °C
"Cc1ccc2c(Cc3nc4c(F)c(F)cc(F)c4s3)cn(CC(=O)O)c2n1 [Example 2, [6-methyl-3-(4,5,7-trifluoro-benzothiazol-2-ylmethyl)-pyrrolo[2,3-b]pyridin-1-yl]-acetic acid]",IC50,[1],8 nM
"O=C(O)Cc1cncc(Cc2nc3c(F)c(F)cc(F)c3s2)c1 [Example 8, 5-(4,5,7-trifluoro-benzothiazol-2-ylmethyl)-pyridin-3-yl-acetic acid hydrochloride]",IC50,[1],8 nM
"Cc1nc(C)c(Cc2nc3c(F)c(F)cc(F)c3s2)c(C)c1CC(=O)O [Example 9, 2,4,6-trimethyl-5-(4,5,7-trifluoro-benzothiazol-2-ylmethyl)-pyridin-3-yl-acetic acid hydrochloride]",IC50,[1],6 nM
"CCc1c(CC(=O)O)c(C)nc(C)c1Cc1nc2c(F)c(F)cc(F)c2s1 [Example 10, 2,6-dimethyl-4-ethyl-5-(4,5,7-trifluoro-benzothiazol-2-ylmethyl)-pyridin-3-yl-acetic acid hydrochloride]",IC50,[1],31 nM
"CCc1ncc(Cc2nc3c(F)c(F)cc(F)c3s2)cc1CC(=O)O [Example 11, 2-ethyl-5-(4,5,7-trifluoro-benzothiazol-2-ylmethyl)-pyridin-3-yl-acetic acid hydrochloride]",IC50,[1],6 nM
"O=C(O)Cc1cc(Cc2nc3c(F)c(F)cc(F)c3s2)cnc1Cc1ccccc1 [Example 12, 2-benzyl-5-(4,5,7-trifluoro-benzothiazol-2-ylmethyl)-pyridin-3-yl-acetic acid hydrochloride]",IC50,[1],5 nM
"O=C(O)Cc1cc(Cc2nc3c(F)c(F)cc(F)c3s2)cnc1-c1ccccc1 [Example 13, 2-phenyl-5-(4,5,7-trifluoro-benzothiazol-2-ylmethyl)-pyridin-3-yl-acetic acid hydrochloride]",IC50,[1],8 nM
"CCc1ncc(CC(=O)O)cc1Cc1nc2c(F)c(F)cc(F)c2s1 [Example 14, 6-ethyl-5-(4,5,7-trifluoro-benzothiazol-2-ylmethyl)-pyridin-3-yl-acetic acid hydrochloride]",Amount of uric acid excreted in the urine in 24 hour intervals,"[2]; Chimp #1, 0-24 hours",1020 mg
same,Amount of uric acid excreted in the urine in 24 hour intervals,"[2]; Chimp #1, 24-48 hours",686 mg
same,Amount of uric acid excreted in the urine in 24 hour intervals,"[2]; Chimp #1, 48-72 hours",657 mg
same,Amount of uric acid excreted in the urine in 24 hour intervals,"[2]; Chimp #1, Baseline",321 mg
same,Amount of uric acid excreted in the urine in 24 hour intervals,"[2]; Chimp #2, 0-24 hours",758 mg
same,Amount of uric acid excreted in the urine in 24 hour intervals,"[2]; Chimp #2, 24-48 hours",399 mg
same,Amount of uric acid excreted in the urine in 24 hour intervals,"[2]; Chimp #2, 48-72 hours",290 mg
same,Amount of uric acid excreted in the urine in 24 hour intervals,"[2]; Chimp #2, Baseline",474 mg
same,Amount of uric acid excreted in the urine in 24 hour intervals,"[2]; Chimp #3, 0-24 hours",843 mg
same,Amount of uric acid excreted in the urine in 24 hour intervals,"[2]; Chimp #3, 24-48 hours",189 mg
same,Amount of uric acid excreted in the urine in 24 hour intervals,"[2]; Chimp #3, 48-72 hours",216 mg
same,Amount of uric acid excreted in the urine in 24 hour intervals,"[2]; Chimp #3, Baseline",347 mg
same,Amount of uric acid excreted in the urine in 24 hour intervals,"[2]; Chimp #4, Baseline",450 mg
same,urinary excretion of uric acid,"[2]; chimpanzee, over the first 24 hours following dosage",concomitant increase in the urinary excretion of uric acid
same,"Amount of uric acid excreted in the urine in 24 hour intervals, mean",[2]; 0-24 hours,874 mg
same,"Amount of uric acid excreted in the urine in 24 hour intervals, mean",[2]; 24-48 hours,425 mg
same,"Amount of uric acid excreted in the urine in 24 hour intervals, mean",[2]; 48-72 hours,388 mg
same,"Amount of uric acid excreted in the urine in 24 hour intervals, mean",[2]; Baseline,398 mg
same,Concentrations of uric acid in serum,"blood uric acid levels; Chimp #1, 0 hours",3.0 mg/dL
same,Concentrations of uric acid in serum,"blood uric acid levels; Chimp #1, 0.25 hours",3.0 mg/dL
same,Concentrations of uric acid in serum,"blood uric acid levels; Chimp #1, 0.50 hours",3.0 mg/dL
same,Concentrations of uric acid in serum,"blood uric acid levels; Chimp #1, 1.0 hours",3.0 mg/dL
same,Concentrations of uric acid in serum,"blood uric acid levels; Chimp #1, 2.0 hours",2.8 mg/dL
same,Concentrations of uric acid in serum,"blood uric acid levels; Chimp #1, 6.0 hours",2.2 mg/dL
same,Concentrations of uric acid in serum,"blood uric acid levels; Chimp #1, 12 hours",1.9 mg/dL
same,Concentrations of uric acid in serum,"blood uric acid levels; Chimp #1, 24 hours",2.3 mg/dL
same,Concentrations of uric acid in serum,"blood uric acid levels; Chimp #1, 48 hours",3.4 mg/dL
same,Concentrations of uric acid in serum,"blood uric acid levels; Chimp #1, 72 hours",3.2 mg/dL
same,Concentrations of uric acid in serum,"blood uric acid levels; Chimp #1, Baseline",2.9 mg/dL
same,Concentrations of uric acid in serum,"blood uric acid levels; Chimp #2, 0 hours",1.7 mg/dL
same,Concentrations of uric acid in serum,"blood uric acid levels; Chimp #2, 0.25 hours",1.8 mg/dL
same,Concentrations of uric acid in serum,"blood uric acid levels; Chimp #2, 0.50 hours",1.8 mg/dL
same,Concentrations of uric acid in serum,"blood uric acid levels; Chimp #2, 1.0 hours",1.8 mg/dL
same,Concentrations of uric acid in serum,"blood uric acid levels; Chimp #2, 2.0 hours",1.7 mg/dL
same,Concentrations of uric acid in serum,"blood uric acid levels; Chimp #2, 6.0 hours",1.2 mg/dL
same,Concentrations of uric acid in serum,"blood uric acid levels; Chimp #2, 12 hours",0.9 mg/dL
same,Concentrations of uric acid in serum,"blood uric acid levels; Chimp #2, 24 hours",1.4 mg/dL
same,Concentrations of uric acid in serum,"blood uric acid levels; Chimp #2, 48 hours",1.2 mg/dL
same,Concentrations of uric acid in serum,"blood uric acid levels; Chimp #2, 72 hours",1.4 mg/dL
same,Concentrations of uric acid in serum,"blood uric acid levels; Chimp #2, Baseline",1.9 mg/dL
same,Concentrations of uric acid in serum,"blood uric acid levels; Chimp #3, 0 hours",2.2 mg/dL
same,Concentrations of uric acid in serum,"blood uric acid levels; Chimp #3, 0.25 hours",2.3 mg/dL
same,Concentrations of uric acid in serum,"blood uric acid levels; Chimp #3, 0.50 hours",2.3 mg/dL
same,Concentrations of uric acid in serum,"blood uric acid levels; Chimp #3, 1.0 hours",2.1 mg/dL
same,Concentrations of uric acid in serum,"blood uric acid levels; Chimp #3, 2.0 hours",1.9 mg/dL
same,Concentrations of uric acid in serum,"blood uric acid levels; Chimp #3, 6.0 hours",1.6 mg/dL
same,Concentrations of uric acid in serum,"blood uric acid levels; Chimp #3, 12 hours",1.6 mg/dL
same,Concentrations of uric acid in serum,"blood uric acid levels; Chimp #3, 24 hours",1.9 mg/dL
same,Concentrations of uric acid in serum,"blood uric acid levels; Chimp #3, 48 hours",1.9 mg/dL
same,Concentrations of uric acid in serum,"blood uric acid levels; Chimp #3, 72 hours",2.4 mg/dL
same,Concentrations of uric acid in serum,"blood uric acid levels; Chimp #3, Baseline",2.3 mg/dL
same,Concentrations of uric acid in serum,"blood uric acid levels; Chimp #4, 0 hours",2.5 mg/dL
same,Concentrations of uric acid in serum,"blood uric acid levels; Chimp #4, 0.25 hours",2.6 mg/dL
same,Concentrations of uric acid in serum,"blood uric acid levels; Chimp #4, 0.50 hours",2.5 mg/dL
same,Concentrations of uric acid in serum,"blood uric acid levels; Chimp #4, 1.0 hours",2.7 mg/dL
same,Concentrations of uric acid in serum,"blood uric acid levels; Chimp #4, 2.0 hours",2.3 mg/dL
same,Concentrations of uric acid in serum,"blood uric acid levels; Chimp #4, 6.0 hours",1.8 mg/dL
same,Concentrations of uric acid in serum,"blood uric acid levels; Chimp #4, 12 hours",1.7 mg/dL
same,Concentrations of uric acid in serum,"blood uric acid levels; Chimp #4, Baseline",2.5 mg/dL
same,maximal lowering of blood uric acid levels,"blood uric acid levels; chimpanzee, average of three animals, at approximately 12 hours following dosage",about 44%
same,uricosuric effect,"blood uric acid levels; chimpanzee, data from three animals",clear uricosuric effect
same,"Concentrations of uric acid in serum, mean",blood uric acid levels; 0 hours,2.4 mg/dL
same,"Concentrations of uric acid in serum, mean",blood uric acid levels; 0.25 hours,2.4 mg/dL
same,"Concentrations of uric acid in serum, mean",blood uric acid levels; 0.50 hours,2.4 mg/dL
same,"Concentrations of uric acid in serum, mean",blood uric acid levels; 1.0 hours,2.4 mg/dL
same,"Concentrations of uric acid in serum, mean",blood uric acid levels; 2.0 hours,2.2 mg/dL
same,"Concentrations of uric acid in serum, mean",blood uric acid levels; 6.0 hours,1.7 mg/dL
same,"Concentrations of uric acid in serum, mean",blood uric acid levels; 12 hours,1.5 mg/dL
same,"Concentrations of uric acid in serum, mean",blood uric acid levels; 24 hours,1.9 mg/dL
same,"Concentrations of uric acid in serum, mean",blood uric acid levels; 48 hours,2.2 mg/dL
same,"Concentrations of uric acid in serum, mean",blood uric acid levels; 72 hours,2.3 mg/dL
same,"Concentrations of uric acid in serum, mean",blood uric acid levels; Baseline,2.4 mg/dL
same,IC50,[1],7 nM
"O=C(O)Cc1cnc(-c2ccccc2)c(Cc2nc3c(F)c(F)cc(F)c3s2)c1 [Example 15, 6-Phenyl-5-(4,5,7-trifluoro-benzothiazol-2-ylmethyl)-pyridin-3-yl-acetic acid hydrochloride]",IC50,[1],6 nM
"O=C(O)Cc1cnc(Cc2ccccc2)c(Cc2nc3c(F)c(F)cc(F)c3s2)c1 [Example 16, 6-Benzyl-5-(4,5,7-trifluoro-benzothiazol-2-ylmethyl)-pyridin-3-yl-acetic acid hydrochloride]",IC50,[1],7 nM
"Cc1c(CC(=O)O)csc1Cc1nc2c(F)c(F)cc(F)c2s1 [Example 24, [4-methyl-5-(4,5,7-trifluoro-benzothiazol-2-ylmethyl)-thiophen-3-yl]-acetic acid]",IC50,[1],31 nM
"O=C(O)Cc1csc(Cc2nc3c(F)c(F)cc(F)c3s2)n1 [Example 25, [2-(4,5,7-Trifluoro-benzothiazol-2-ylmethyl)-thiazol-4-yl]-acetic acid]",IC50,[1],130 nM
